What was measured:
male CF-1 mice = conditions: mouse, in vivo
potassium ion-channel = conditions: cited from earlier work

conkunitzin-S1
95% confidence limits of the ED50 of seizure activity (male CF-1 mice): 0.3 to 2 nmol | Behaviour observed after injection (male CF-1 mice): spastic running followed by tonic extension seizures | ED50 of seizure activity (male CF-1 mice): 1 nmol per mouse | Pore-blocking activity (potassium ion-channel): potassium ion-channel pore-blocking toxin

From paper PMC2924234 (Acta Crystallographica Section D: Biological Crystallography, 2006)
